Patent US20210278391A1, “COMPOSITIONS AND METHODS FOR TREATING CARDIOVASCULAR AND METABOLIC CONDITIONS” (The Regents of the University of California, priority 2017, published 2021)

Conditions: male, C57BL/6, mouse, in vivo, ip
Description: Ob/ob mice or wildtype C57BL/6 male mice were purchased from Jackson Labs or SLAC Laboratory Animals Company Limited, Shanghai, China. PP2Cm germ-line knockout mice were generated as previously described (Lu et al. (2009) J Clin Invest 119:1678-1687). All animals were housed at 22° C. with a 12-hour light, 12-hour dark cycle with free access to water and standard chow. BCAA in water was prepared by BCAA powders. Isocaloric high protein diet (TD90018) and low protein diet (TD90016) were purchased from Envigo Teklad Diet. For glucose or insulin tolerance test, mice were fasted for 6 hours and injected (intraperitoneally) with insulin or D-glucose. […] For BCAA tolerance test, ob/ob mice at age of 10 weeks or high fat diet induced obese (DIO) mice were used. To induce DIO, high fat diet (60% kcal % fat) or control diet (10% kcal % fat) (Research Diets, New Brunswick, N.J.) was used to feed mice starting at 6 weeks of age and continued for 8 weeks. […] Plasma samples were collected at 0, 30, 60, 120 minute points to measure BCAA/BCKA levels. […]
Blood samples were collected at 0, 30, 60, 120 minute points as indicated. Plasma was then collected and BCAA/BCKA was measured.

CC(C)C[C@H](N)C(=O)O [leucine]
time point of recovery to near the basal level: 1 h
